A word on the Cmax: it is the maximum level reached in the sampled fluid or tissue. The term clearance denotes the volume of plasma or blood freed of the substance per unit of time. Read a high clearance as efficient removal. A word on the chromatographic logD: it is lipophilicity estimated from chromatographic retention. Read a high chromatographic logD as a more lipophilic compound. In general, Vd refers to a proportionality between amount in the body and measured concentration, not a real space. Higher therefore signals wide distribution into tissue. Usually AUC stands for concentration integrated over time. A high value points to more exposure. The AUC(0-t) is exposure summed from dosing to a finite time, without extrapolation to infinity. Higher therefore signals high exposure.

1 compound from ChEMBL document CHEMBL6134862, “Discovery of WEE1 Kinase Inhibitors with Potent Activity against Patient-Derived, Metastatic Colorectal Cancer Organoids” (J Med Chem, 2025) can be followed below.

SMILES strings stand for the structures.

A short description of series [1]: in vivo. Particulars: Swiss outbred, mouse, po, 10 mg/kg.
Series [2] is described as follows: in vivo. The note with it: Swiss outbred, mouse, iv, 3 mg/kg.
Series [3] in a line: physchem. Particulars: buffer, pH 7.4.
Series [4] can be described thus: in vivo. The note with it: Swiss outbred, mouse, iv, 3 mg/kg. This is another data set of the same source.
For series [5] the following is noted: mouse, in vivo, po, 10 mg/kg, 24 h.
A short description of series [6]: in vivo. Particulars: Swiss outbred, mouse, iv, 3 mg/kg. This is another data set of the same source.

In the case of `C=CCn1c(=O)c2cnc(Nc3ccc(N4CCN(C)CC4)cc3)nc2n1-c1cccc(C(C)(C)O)n1` [ADAVOSERTIB], in series [1], the Cmax at 24 h was found to be 26 nM. The compound also gave a clearance at 24 h in series [2] of 75 mL/min/kg. The compound also came in with a chromatographic logD in series [3] of 3.4. In series [4], this compound displayed a Vd at 24 h of 1.27 L/kg. This compound also displayed an AUC in series [5] of 0.067 µM·h. The AUC(0-t) at 24 h in series [6] is 0.21 µM·h.
